Measurements as given in US10729659B2, “Nanogel-mediated drug delivery” (The Cleveland Clinic Foundation, priority 2012, dated 2020).
≈ marks a conversion by molar mass, not a printed value.

Columns and labels:
[1] = DAC stability in cell culture media; type: physicochemical; conditions: 50 μg/mL, DMEM with 15% FBS, 37° C.
Experimental: Samples were incubated as 2 mL aliquots at 37° C., collected at various time points and lyophilized. To extract DAC from lyophilized samples 3 mL of methanol was added and kept on orbital rotating shaker at 100 rpm in cold room overnight.
DAC was extracted from lyophilized samples by adding 3 mL of methanol and kept on an orbital rotating shaker at 100 rpm in cold room overnight.

[2] = rat model; cited from earlier work
MCF-7/Adr cells [3] = experiment: Cellular uptake of dox; type: cell-based, human; conditions: DAC 50 ng/mL 24 h, then dox 1 μg/mL; 15 min to 12 h
Experimental: Drug resistant breast cancer cells were seeded in 24 well plates (1.2×10^6 cells/well). Post 48 h seeding, cells were pre-treated with DAC (50 ng/mL; 24 h); and then incubated with fixed concentration of dox (1 μg/mL) for indicated time points. Post drug incubation cell lysates in RIPA buffer was collected and lyophilized. Dox was extracted from lyophilized cell lysates using methanol as the solvent and analyzed by HPLC.

[4] = test system: MCF-7/Adr xenograft tumor; experiment: In vivo anti-tumor efficacy, drug-resistant breast cancer model; parameters: species or system athymic nude mice; conditions: single intravenous dose 15 mg/kg; vs control nanogel, DAC in solution
Experimental: A murine drug-resistant breast cancer model (MCF-7/ADR) was used to investigate the anti-tumor efficacy of DAC nanogels. To establish tumors, 1×10^6 MCF-7/ADR cells were suspended in 100 μL of matrigel (BD biosciences San Jose, Calif.) and injected in the mammary fat pad via a 27 G ½ gauge needle. Tumor nodules were allowed to grow to about 300 mm3 prior to receiving DAC nanogels (drug dose 15 mg/kg) or its respective controls (DAC in solution or Control Nanogels) intravenously. Post single treatment, tumor dimensions were measured with a digital caliper at regular time intervals and the tumor volume was calculated using the formula [length×(width)^2]/2. […] Data were expressed as mean±SEM (n=3 to 6). Variances in tumor growth were determined using one-way ANOVA test followed by Tukey test using GraphPad Prism version 4.0 for Windows (p<0.05).
In vivo anti-tumor efficacy of DAC nanogels in athymic nude mice bearing MCF-7/Adr xenograft tumor: To establish tumors, 1×10^6 MCF-7/Adr cells were suspended in 100 μL of matrigel (BD biosciences San Jose, Calif.) and injected in the mammary fat pad via a 27 G ½ gauge needle. […] Tumor dimensions were measured with a digital caliper at regular time interval and the tumor volume was calculated using the formula [length×(width)2]/2. Data were expressed as mean±SEM (n=3 to 6). […]

MCF-7/Adr cells [5] = experiment: Cell viability assay, DAC solution vs DAC nanogel; type: cell-based; conditions: Homo sapiens, NCI/ADR-RES, read-out: IC50 value at day 12 post drug treatment
Experimental: Cytotoxicity of DAC in solution vs. DAC loaded nanogel was compared at day 5, 10 or 12 post drug additions in drug resistant cells. In a typical experiment; cells were seeded at 3000 cells/well in 96 well plates. 24 h post seeding, 0.1 mL cell culture media containing different concentrations of DAC solution or DAC nanogel was added and incubated for 3 d. Post incubation; cells were washed with 1×-DPBS and then replaced with drug free medium at every 48 h until cell viability was measured via an MTS assay kit (Promega CellTiter 96 AQueous Promega, Madison, Wis.). The effects of the drug on cell proliferation were calculated as the percentage cell growth vs. growth of control cells that received no drug treatment.
Cytotoxicity of DAC in solution vs. different DAC loaded nanogel formulations was compared at day 5, 10 or 12 post drug additions in drug resistant cells. In a typical experiment, cells were seeded at 3000 cells/well in 96 well plates. Twenty four hr post seeding, 0.1 mL cell culture media containing different concentrations of DAC solution or DAC nanogel was added and incubated for 3 d. […] Cell viability was measured using MTS (Promega CellTiter 96 AQueous Promega, Madison, Wis.). The effects of the drug on cell proliferation were calculated as the percentage cell growth vs. growth of control cells that received no drug treatment.

DNMT1 = biological target: T1, DNMT1 (Homo sapiens, UniProt P26358); experiment: Western blot of DNMT1 depletion in MCF-7/Adr cells; type: cell-based
T1 construct: Whole cell lysates were collected at the end of each time point and western blot was done for the expression of DNMT1; endogenous in cells; host or cells: MCF-7/Adr cells
Experimental: Whole cell lysates, were made by lysing 1×10^6 treated or untreated cells, with RIPA buffer (Sigma-Aldrich, St. Louis, Mo.) containing 1× protease inhibitor cocktail (Calbiochem, Gibbstown, N.J.). Lysates were collected by centrifugation at 14,000 rpm for 15 min Protein concentration was determined by a bicinchoninic acid (BCA) assay kit (Pierce, Rockford, Ill.). 20-40 μg proteins of cell lysates were electrophoresed through 13.5% SD Spolyacrylamide gel or 4-15% linear pre-cast polyacrylamide gradient gel (Bio-Rad Laboratories, Hercules, Calif.) and transferred to polyvinylidene difluoride (PVDF) membranes (GE Healthcare Bio-sciences, corp., Piscataway, N.J.). The blots were probed for mouse monoclonal p21 (Cell Signaling Technology, Inc., Danvers, Mass.), mouse monoclonal DNMT1 (Abcam Inc., Cambridge, Mass.), and mouse monoclonal anti-actin (Sigma-Aldrich, St. Louis, Mo.). For detection of bound antibody, PVDF membrane was incubated with horse radish—tagged, goat anti-mouse antibody. After incubation membrane was washed with TBST, and stained with enhanced chemiluminescence (ECL) reagent or ECL plus reagent (GE Healthcare Bio-sciences, corp., Piscataway, N.J.) according to manufacturer protocol. […]

[6] = cited from earlier work
p21 = experiment: Western blotting of p21; type: cell-based, human; conditions: MCF-7/Adr
Experimental: Whole cell lysates, were made by lysing 1×10^6 treated or untreated cells, with RIPA buffer (Sigma-Aldrich, St. Louis, Mo.) containing 1× protease inhibitor cocktail (Calbiochem, Gibbstown, N.J.). Lysates were collected by centrifugation at 14,000 rpm for 15 min Protein concentration was determined by a bicinchoninic acid (BCA) assay kit (Pierce, Rockford, Ill.). 20-40 μg proteins of cell lysates were electrophoresed through 13.5% SD Spolyacrylamide gel or 4-15% linear pre-cast polyacrylamide gradient gel (Bio-Rad Laboratories, Hercules, Calif.) and transferred to polyvinylidene difluoride (PVDF) membranes (GE Healthcare Bio-sciences, corp., Piscataway, N.J.). The blots were probed for mouse monoclonal p21 (Cell Signaling Technology, Inc., Danvers, Mass.), mouse monoclonal DNMT1 (Abcam Inc., Cambridge, Mass.), and mouse monoclonal anti-actin (Sigma-Aldrich, St. Louis, Mo.). For detection of bound antibody, PVDF membrane was incubated with horse radish—tagged, goat anti-mouse antibody. After incubation membrane was washed with TBST, and stained with enhanced chemiluminescence (ECL) reagent or ECL plus reagent (GE Healthcare Bio-sciences, corp., Piscataway, N.J.) according to manufacturer protocol.

[7] = cited from earlier work; remark: listed apart in the source

T1 sequence (P26358 whole entry): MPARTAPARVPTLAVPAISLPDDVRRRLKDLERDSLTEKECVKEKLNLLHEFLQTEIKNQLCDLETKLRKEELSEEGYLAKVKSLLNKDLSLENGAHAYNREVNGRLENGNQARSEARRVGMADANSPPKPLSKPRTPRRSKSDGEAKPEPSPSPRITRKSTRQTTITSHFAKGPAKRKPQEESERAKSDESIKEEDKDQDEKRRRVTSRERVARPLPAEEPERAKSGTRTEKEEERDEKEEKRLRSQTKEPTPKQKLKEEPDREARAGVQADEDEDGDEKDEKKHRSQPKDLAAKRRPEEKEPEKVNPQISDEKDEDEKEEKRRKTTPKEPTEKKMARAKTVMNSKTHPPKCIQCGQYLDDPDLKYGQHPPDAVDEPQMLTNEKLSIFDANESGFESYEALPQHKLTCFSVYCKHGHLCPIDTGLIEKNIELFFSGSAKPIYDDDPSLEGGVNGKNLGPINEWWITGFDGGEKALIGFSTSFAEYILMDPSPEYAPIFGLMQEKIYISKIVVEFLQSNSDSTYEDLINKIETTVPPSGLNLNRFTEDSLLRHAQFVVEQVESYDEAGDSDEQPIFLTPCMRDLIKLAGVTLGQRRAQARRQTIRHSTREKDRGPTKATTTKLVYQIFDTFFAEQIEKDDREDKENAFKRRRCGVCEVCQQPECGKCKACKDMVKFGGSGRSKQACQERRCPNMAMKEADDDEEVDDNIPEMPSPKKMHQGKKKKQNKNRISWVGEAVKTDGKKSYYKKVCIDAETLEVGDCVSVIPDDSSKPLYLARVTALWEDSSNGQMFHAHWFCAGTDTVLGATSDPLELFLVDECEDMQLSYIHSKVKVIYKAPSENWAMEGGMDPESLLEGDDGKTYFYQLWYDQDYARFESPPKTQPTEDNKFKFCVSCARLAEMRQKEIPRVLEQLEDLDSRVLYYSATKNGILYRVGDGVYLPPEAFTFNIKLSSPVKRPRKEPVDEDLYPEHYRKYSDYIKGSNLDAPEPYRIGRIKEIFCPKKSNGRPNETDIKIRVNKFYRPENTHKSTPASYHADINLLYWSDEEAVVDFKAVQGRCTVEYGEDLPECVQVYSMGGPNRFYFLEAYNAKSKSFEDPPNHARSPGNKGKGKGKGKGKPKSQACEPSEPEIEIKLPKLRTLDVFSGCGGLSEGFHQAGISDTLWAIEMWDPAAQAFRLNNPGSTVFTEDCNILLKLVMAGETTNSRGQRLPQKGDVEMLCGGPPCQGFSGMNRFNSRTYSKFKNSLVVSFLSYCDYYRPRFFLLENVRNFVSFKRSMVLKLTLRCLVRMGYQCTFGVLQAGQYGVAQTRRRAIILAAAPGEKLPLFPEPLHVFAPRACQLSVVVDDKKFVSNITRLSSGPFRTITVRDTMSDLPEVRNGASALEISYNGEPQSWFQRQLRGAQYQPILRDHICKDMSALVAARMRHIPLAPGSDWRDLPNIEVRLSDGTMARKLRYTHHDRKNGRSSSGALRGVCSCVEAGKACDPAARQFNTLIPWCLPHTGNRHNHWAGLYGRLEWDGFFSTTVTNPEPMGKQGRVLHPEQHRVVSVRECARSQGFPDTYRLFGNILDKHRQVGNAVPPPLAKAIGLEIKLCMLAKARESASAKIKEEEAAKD

Nc1ncn([C@H]2C[C@H](O)[C@@H](CO)O2)c(=O)n1 [DAC, 5-aza-2′-deoxycytidine]
No detectable levels of DAC at [1]: 8 h
DAC degraded within an hour ([1]; 1 h): 60%
Carcinogenicity [2]: has not
Uptake of dox in DAC pre-treated cells vs dox alone (MCF-7/Adr cells [3]): higher increase in uptake of dox
Tumor growth / tumor size [4]: not different
IC50 (MCF-7/Adr cells [5]): 0.434 mg/L (≈ 1.9 µM)
Duration of DNMT1 depletion (DNMT1; 50 ng/mL): 24 h
DNMT1 levels vs untreated (DNMT1; 2, 3 and 5 days post treatment): No difference in DNMT1 levels
Half-life ([6]; in humans): 10 to 35 min
Clearance ([6]; in vivo): very high clearance
p21 protein expression (immunoblotting) (p21): significant increase
In vivo half life [7]: 10 to 30 min
Plasma protein binding ([7]; in vivo): poor plasma protein binding
